According to US20230365571A1, “COMPOUNDS AND COMPOSITIONS AS Sppl2a INHIBITORS” (Novartis AG, priority 2020, published 2023):

How the values were obtained:
Assay type in all cases: cell-based
human SPPL2a [1] = biological target: T1, human SPPL2a (Homo sapiens, UniProt Q8TCT8); assay: Sppl2a TL (translocation) imaging assay in U-2 OS cells; design: expressed in transfected cells; conditions: U-2 OS cells expressing human SPPL2a and EGFP-TNFα(aa1-76) NTF substrate; 24 h
T1 sequence (Q8TCT8 26-520): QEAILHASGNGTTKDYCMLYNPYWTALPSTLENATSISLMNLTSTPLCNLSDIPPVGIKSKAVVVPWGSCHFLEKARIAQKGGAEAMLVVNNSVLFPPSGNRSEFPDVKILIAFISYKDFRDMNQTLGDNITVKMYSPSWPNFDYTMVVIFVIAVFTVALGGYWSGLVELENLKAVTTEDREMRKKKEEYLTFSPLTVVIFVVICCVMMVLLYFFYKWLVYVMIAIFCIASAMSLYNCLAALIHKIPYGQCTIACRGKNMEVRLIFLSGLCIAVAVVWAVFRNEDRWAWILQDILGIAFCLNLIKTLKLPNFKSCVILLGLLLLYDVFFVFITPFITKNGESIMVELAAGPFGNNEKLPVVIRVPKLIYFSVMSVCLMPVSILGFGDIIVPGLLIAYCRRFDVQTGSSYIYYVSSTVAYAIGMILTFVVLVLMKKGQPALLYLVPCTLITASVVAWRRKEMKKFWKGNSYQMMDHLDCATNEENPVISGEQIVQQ
Outline: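 U-2 OS cells stably expressing human SPPL2a plus doxycycline-induced EGFP-TNFα(aa1-76) NTF, treated 24 h at 37 °C with inhibitor (100 μM–1 nM, 11 points, 0.9% DMSO, 5 μg/mL doxycycline). Imaging of nuclear-minus-cytoplasmic EGFP intensity; % inhibition versus 0.5 μM LY-411,575 and DMSO, IC50 by nonlinear regression; CC50 from cell count.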

γ-secretase = γ-secretase (Homo sapiens, UniProt P49768); assay: γ-secretase RGA (reporter gene assay, Notch1 substrate) in HEK293 cells; conditions: Notch1-VP16-Gal4 substrate, Gal4-luciferase reporter, 24 h, read-out: g-secretase RGA IC50
From the text: The assay is based on the coupling of the proteolytic degradation of a membrane bound synthetic substrate, a VP16-Gal4 fusion protein with Notch1, which migrates to the nucleus upon cleavage, where it activates Gal4 driven expression of luciferase. […] The luciferase dependent-luminescence is plotted against the concentrations of compound to generate a dose response curve, which allows the calculation of the IC50 value. DNA vectors encoding human Notch1-VP16-Gal4 and a Gal4-luciferase reporter were transiently transfected in HEK293 cells, which express γ-secretase components endogenously. In a typical experiment 10 μg plasmid encoding the reporter Gal4-luciferase and 20 μg plasmid encoding the substrate Notch1-VP16-Gal4 were mixed together. The DNA mixture was combined with 107 μl FuGENE® (Promega), 735 μl Opti-MEM® (Life Technologies) and incubated for 5 minutes at RT. To this mixture 20 mL of concentrated HEK293 cells were added and thoroughly mixed. The cell suspension was distributed to a white solid 384 well plate. Within hours, 50 nl of compound in DMSO was stamped into the wells via pintool. […] After incubation at room temperature for 5 min, the plate was transferred to a luminometer and the luminescence was measured. The IC50 was determined by plotting compound concentration vs. normalized luminescence values.

human SPPL2a [2] = biological target: T1, human SPPL2a; assay: Sppl2a RGA (reporter gene assay) in HEK293 cells; design: expressed in transfected cells; host or cells: HEK293 (transient); conditions: NT-TNF-VP16-Gal4 substrate, Gal4-luciferase reporter, 24 h
Outline: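 Cleavage of a membrane-bound TNF N-terminal–VP16-Gal4 substrate drives Gal4-luciferase expression in transiently transfected HEK293 cells also expressing human SPPL2a. Compounds incubated 24 h, 37 °C, 5% CO2; luminescence read, normalized and plotted against concentration for IC50.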

Sppl2a CD74 = biological target: T2, Sppl2a CD74 (Mus musculus, UniProt Q9JJF9); assay: CD74/p8 mouse whole blood assay, flow cytometry format; conditions: Balb/c mouse whole blood, 5 h, CD74 signal on gated live B cells
T2 construct: Mouse whole blood Balb/c mice (sodium citrate) was ordered by Bioreclamation LLC; tissue Bioreclamation LLC
T2 sequence (Q9JJF9 26-523): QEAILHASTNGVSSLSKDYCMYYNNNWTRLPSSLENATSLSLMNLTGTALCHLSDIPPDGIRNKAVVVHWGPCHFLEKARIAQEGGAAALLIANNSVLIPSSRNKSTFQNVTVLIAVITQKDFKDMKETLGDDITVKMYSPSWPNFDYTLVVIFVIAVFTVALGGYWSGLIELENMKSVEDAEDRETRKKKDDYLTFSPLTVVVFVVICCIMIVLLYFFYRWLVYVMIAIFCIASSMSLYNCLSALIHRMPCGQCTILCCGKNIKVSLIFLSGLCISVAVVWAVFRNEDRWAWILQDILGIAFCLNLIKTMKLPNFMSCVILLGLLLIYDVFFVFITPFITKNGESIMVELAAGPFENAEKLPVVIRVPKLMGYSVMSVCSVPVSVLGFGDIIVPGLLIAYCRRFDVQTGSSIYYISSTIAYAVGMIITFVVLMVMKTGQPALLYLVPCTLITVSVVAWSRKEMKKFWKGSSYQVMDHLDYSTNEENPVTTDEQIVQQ
Outline: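 Balb/c mouse whole blood (citrate) incubated 5 h at 37 °C with compounds, 11-point dilution from 30 μM top. After RBC lysis, live B220+ B cells stained intracellularly for CD74 (FITC) and analysed by flow cytometry. IC50 fitted from CD74 median fluorescence intensity.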

Row | Compound | IC50 (human SPPL2a [1]) [nM] | IC50 (γ-secretase) [nM] | IC50 (human SPPL2a [2]) [nM] | IC50 (Sppl2a CD74) [nM]
1 | 3,4-Dimethyl-N- ((R)-2-(((S)-11- oxo-2,3,10,11- tetrahydro- 1H,5H- benzo[d]pyrazolo [1,2- a][1,2]diazepin- 10- yl)carbamoyl)pen- tyl)isoxazole-5- carboxamide [Example 33] | 37 | > 10000 | 7 | 
2 | C[C@@H](CF)NC(=O)c1cc(NC(=O)C[C@H](C(=O)N[C@@H]2C(=O)N3CCCN3Cc3c(F)cccc32)C2CC2)n(C)n1 [Example 100, (S)-2-Cyclopropyl-N^1-((S)-6-fluoro-11-oxo-2,3,10,11-tetrahydro-1H,5H-benzo[d]pyrazolo [1,2-a][1,2]diazepin-10-yl)-N^4-(3-(((S)-1-fluoropropan-2-yl)carbamoyl)-1-methyl-1H-pyrazol-5-yl)succinamide] | 15 |  | 28 | 272
3 | CCn1nc(-c2cc(C)no2)cc1NC(=O)C[C@@H](C)C(=O)N[C@@H]1C(=O)N2CCCN2Cc2ccccc21 [Example 101, (R)-N^4-(1-Ethyl-3-(3-methylisoxazol-5-yl)-1H-pyrazol-5-yl)-2-methyl-N^1-((S)-11-oxo-2,3,10,11-tetrahydro-1H,5H-benzo[d]pyrazolo [1,2-a][1,2]diazepin-10-yl)succinamide] | 15 |  | 7 | 473
4 | C[C@H](CC(=O)Nc1cc(C(=O)NC2CC2)nn1C)C(=O)N[C@@H]1C(=O)N2CCCN2Cc2ccccc21 [Example 102, (R)-N^4-(3-(Cyclopropylcar-bamoyl)-1-methyl-1H-pyrazol-5-yl)-2-methyl-N^1-((S)-11-oxo-2,3,10,11-tetrahydro-1H,5H-benzo[d]pyrazolo [1,2-a][1,2]diazepin-10-yl)succinamide] | 17 |  | 123 | 1520
5 | Cn1nc(-c2cc(C3CC3)no2)cc1NC(=O)C[C@H](C(=O)N[C@@H]1C(=O)N2CC3(CC3)CN2C(=O)c2ccccc21)C1CC1 [Example 103, (S)-2-Cyclopropyl-N^4-(3-(3-cyclopropylisoxa-zol-5-yl)-1-methyl-1H-pyrazol-5-yl)-N^1-((S)-5,11-dioxo-10,11-dihydro-1H,3H,5H-spiro[benzo[d]pyr-azolo[1,2-a][1,2]diazepine-2,1″- cyclopropan]-10-yl)succinamide] | 17 |  | 13 | 1250
